Tests used:
[1] = tested on: phosphorylated FLT3, MEK and ERK in MV-4-11 (FLT3(ITD)); assay: Phosphorylation state of kinases in MV-4-11 cells; type: cell-based; details: MV-4-11, FLT3(ITD) mutation
Protocol: The downstream effects of inhibition of a particular kinase (e.g. MEK) can be established by measuring the phosphorylation state of several proteins that require that kinase for phosphorylation (e.g. ERK1). Cultured cells are treated with hypothemycin or other lactone analogs described herein, and Western blots of cell extracts are probed with antibodies specific for the unmodified and phosphorylated forms of the downstream targets. As an example, the effects of hypothemycin on MEK1/2 can be determined by measuring the level of ERK1/2 phosphorylation.

[2] = target: TrkB (Homo sapiens, UniProt Q16620); assay: Time-dependent kinase inhibition kinetics (progress curve); type: biochemical
Protocol: (§1) Typically, one measures the increase in inhibition of protein kinase activity in the presence of inhibitor over time. In one method, aliquots of a “pre-incubation” reaction mixture containing enzyme and inhibitor are assayed for activity (initial velocities) over time; increased inhibition or decreased initial velocities will be observed over time as the Michael adduct forms (Walsh, C, Enzyme Reaction Mechanisms, W.H. Freeman & Co., 1979, pp 86-94). In a second method, the time dependent loss of activity is measured as “progress curves” that measure and analyze product formed (e.g. ADP) versus time (Morrison & Walsh, Adv. Enzymol Relat Areas Mol. Biol. 1988, 61, 201-301). In either case, the time dependent inactivation can be dampened by the presence of a competing substrate, in this case ATP.
(§2) For covalent inhibitors, plots of log (activity) versus time provide apparent first-order rate constants (kobsd) of enzyme activity loss. If these assays are performed at varying concentrations of inhibitor, a series of first-order plots is obtained and kobsd obtained at each inhibitor concentration. To measure time-dependent inhibition using the “progress-curve method” (see references cited above and Kuzmic et al., Methods Enzymol 2004; 383: 366-81), ERK (or other kinase) is treated with varying amounts of the lactone inhibitor, and the formation of ADP is measured continuously by a coupled assay. […] Such molecules may be competitive inhibitors but should not show time-dependent inactivation.
(§3) Those of skill in the art will recognize that within the set of compounds useful in the methods of the invention, significant variability in specificity can be achieved, allowing one to identify optimal compounds for different applications. Inhibition progress curve analysis was performed using continuous, colorimetric, or fluorimetric assays. All experiments were done at 1 mM ATP, with the exception of KDR (at 5 mM ATP).
(§4) MEK1 assays were performed using pre-incubation experiments with radioactive [^32P]ATP and filter binding of product. All other kinases were analyzed using progress curve analysis from a continuous spectrophotometric assay.

[3] = target: PDGFRα (Homo sapiens, UniProt P16234); assay: as above; type: biochemical
Protocol: as §1, §2, §3, §4

[4] = target: T1, Flt-3 (Homo sapiens, UniProt P36888); assay: as above; type: biochemical
T1 sequence (P36888 27-993): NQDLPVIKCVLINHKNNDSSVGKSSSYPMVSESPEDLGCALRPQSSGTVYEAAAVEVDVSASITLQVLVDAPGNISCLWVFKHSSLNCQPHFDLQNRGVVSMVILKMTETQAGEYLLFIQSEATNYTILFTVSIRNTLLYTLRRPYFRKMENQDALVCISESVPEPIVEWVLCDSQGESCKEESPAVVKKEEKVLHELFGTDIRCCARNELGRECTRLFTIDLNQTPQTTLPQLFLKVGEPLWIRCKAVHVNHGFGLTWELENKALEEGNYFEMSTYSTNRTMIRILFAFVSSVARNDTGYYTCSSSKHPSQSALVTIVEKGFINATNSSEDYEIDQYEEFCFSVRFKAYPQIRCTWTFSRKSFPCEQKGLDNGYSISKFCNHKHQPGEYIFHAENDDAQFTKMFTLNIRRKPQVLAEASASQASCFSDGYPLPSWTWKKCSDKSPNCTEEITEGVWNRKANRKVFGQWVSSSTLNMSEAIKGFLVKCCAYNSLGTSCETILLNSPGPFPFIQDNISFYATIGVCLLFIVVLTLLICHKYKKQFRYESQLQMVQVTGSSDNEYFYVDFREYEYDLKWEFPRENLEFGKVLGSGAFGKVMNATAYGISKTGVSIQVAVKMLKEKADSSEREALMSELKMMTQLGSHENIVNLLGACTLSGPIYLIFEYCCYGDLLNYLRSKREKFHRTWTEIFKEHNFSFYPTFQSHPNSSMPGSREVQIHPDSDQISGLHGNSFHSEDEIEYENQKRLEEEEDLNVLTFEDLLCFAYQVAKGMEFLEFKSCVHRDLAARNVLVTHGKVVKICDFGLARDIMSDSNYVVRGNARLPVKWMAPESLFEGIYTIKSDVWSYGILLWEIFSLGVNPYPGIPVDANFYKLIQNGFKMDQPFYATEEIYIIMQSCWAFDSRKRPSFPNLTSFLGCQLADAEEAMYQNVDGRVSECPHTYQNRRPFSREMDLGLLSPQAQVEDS
Protocol: as §1, §2, §3, §4

[5] = target: TrkA (Homo sapiens, UniProt P04629); assay: as above; type: biochemical
Protocol: as §1, §2, §3, §4

[6] = target: Flt-1 (VEGFR1) (Homo sapiens, UniProt P17948); assay: as above; type: biochemical
Protocol: as §1, §2, §3, §4

[7] = target: GSK3β (Homo sapiens, UniProt P49841); assay: as above; type: biochemical
Protocol: as §1, §2, §3, §4

[8] = target: GSK3α (Homo sapiens, UniProt P49840); assay: as above; type: biochemical
Protocol: as §1, §2, §3, §4

[9] = target: PDGFRβ (Homo sapiens, UniProt P09619); assay: as above; type: biochemical
Protocol: as §1, §2, §3, §4

[10] = target: KDR (VEGFR2) (Homo sapiens, UniProt P35968); assay: as above; type: biochemical
Protocol: as §1, §2, §3, §4

Chain of PDGFRβ (P09619 33-1106): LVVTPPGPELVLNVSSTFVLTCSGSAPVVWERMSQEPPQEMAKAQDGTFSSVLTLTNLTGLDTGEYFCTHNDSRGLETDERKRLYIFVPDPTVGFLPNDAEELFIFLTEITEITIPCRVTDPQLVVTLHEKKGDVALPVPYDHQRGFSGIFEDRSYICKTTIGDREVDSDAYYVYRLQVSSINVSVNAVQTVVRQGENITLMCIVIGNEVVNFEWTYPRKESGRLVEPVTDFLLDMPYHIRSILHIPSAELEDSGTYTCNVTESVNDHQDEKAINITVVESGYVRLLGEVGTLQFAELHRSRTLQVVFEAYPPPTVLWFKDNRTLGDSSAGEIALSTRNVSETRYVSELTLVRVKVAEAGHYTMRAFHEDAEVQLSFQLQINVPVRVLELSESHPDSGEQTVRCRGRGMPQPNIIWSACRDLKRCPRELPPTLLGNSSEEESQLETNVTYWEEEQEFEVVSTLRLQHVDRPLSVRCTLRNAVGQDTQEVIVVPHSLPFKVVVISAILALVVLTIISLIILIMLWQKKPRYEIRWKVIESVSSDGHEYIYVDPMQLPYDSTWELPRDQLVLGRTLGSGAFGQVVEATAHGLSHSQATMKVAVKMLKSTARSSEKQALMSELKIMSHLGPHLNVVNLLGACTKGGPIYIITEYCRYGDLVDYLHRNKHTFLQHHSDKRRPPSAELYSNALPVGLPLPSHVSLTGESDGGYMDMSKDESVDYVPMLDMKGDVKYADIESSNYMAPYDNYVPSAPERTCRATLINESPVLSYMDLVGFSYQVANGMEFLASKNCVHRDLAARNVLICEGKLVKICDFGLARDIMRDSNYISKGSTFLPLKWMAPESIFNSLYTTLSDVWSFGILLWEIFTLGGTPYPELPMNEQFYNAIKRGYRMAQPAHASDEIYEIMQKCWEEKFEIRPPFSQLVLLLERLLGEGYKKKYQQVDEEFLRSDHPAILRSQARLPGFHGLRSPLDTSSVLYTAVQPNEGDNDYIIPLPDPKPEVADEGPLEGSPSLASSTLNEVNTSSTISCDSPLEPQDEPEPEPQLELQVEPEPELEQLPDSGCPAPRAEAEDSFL
Chain of PDGFRα (P16234 24-1089): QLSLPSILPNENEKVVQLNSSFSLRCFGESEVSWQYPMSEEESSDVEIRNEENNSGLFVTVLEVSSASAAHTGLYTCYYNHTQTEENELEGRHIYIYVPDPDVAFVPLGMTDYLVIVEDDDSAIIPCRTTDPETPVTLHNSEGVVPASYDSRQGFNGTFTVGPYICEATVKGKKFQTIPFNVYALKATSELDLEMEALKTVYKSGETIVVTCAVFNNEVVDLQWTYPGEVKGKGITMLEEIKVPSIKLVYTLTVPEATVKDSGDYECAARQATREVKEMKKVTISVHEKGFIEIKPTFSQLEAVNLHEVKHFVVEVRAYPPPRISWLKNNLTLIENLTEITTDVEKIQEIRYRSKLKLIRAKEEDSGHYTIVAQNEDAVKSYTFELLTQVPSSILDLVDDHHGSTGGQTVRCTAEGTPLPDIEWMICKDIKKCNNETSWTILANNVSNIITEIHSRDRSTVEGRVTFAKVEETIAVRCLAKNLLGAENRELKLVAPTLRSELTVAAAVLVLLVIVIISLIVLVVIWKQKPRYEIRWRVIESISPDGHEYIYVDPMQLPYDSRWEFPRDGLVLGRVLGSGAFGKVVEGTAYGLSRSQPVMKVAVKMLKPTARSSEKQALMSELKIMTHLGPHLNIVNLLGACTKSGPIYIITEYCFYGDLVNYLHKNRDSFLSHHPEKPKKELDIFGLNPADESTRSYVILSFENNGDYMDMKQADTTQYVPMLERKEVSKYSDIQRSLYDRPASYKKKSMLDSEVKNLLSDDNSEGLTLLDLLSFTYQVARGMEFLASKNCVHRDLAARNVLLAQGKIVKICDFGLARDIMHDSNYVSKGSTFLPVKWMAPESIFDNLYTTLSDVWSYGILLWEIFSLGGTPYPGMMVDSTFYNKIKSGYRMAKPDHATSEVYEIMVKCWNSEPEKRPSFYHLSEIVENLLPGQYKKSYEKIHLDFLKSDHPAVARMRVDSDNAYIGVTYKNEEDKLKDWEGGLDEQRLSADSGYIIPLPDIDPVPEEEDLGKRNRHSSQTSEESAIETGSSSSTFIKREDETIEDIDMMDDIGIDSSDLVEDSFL
Chain of GSK3β (P49841 whole entry): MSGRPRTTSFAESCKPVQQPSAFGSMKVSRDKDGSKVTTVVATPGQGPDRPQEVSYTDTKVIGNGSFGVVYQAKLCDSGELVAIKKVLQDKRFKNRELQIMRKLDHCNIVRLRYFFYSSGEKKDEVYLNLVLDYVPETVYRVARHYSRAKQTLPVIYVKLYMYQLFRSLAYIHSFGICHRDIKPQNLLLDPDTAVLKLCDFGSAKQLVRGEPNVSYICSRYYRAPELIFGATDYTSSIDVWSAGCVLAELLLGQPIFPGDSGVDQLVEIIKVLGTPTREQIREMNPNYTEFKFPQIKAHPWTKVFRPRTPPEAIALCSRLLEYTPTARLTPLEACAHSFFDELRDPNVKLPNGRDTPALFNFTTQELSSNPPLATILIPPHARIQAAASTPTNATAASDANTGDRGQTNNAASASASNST
Chain of TrkB (Q16620 32-822): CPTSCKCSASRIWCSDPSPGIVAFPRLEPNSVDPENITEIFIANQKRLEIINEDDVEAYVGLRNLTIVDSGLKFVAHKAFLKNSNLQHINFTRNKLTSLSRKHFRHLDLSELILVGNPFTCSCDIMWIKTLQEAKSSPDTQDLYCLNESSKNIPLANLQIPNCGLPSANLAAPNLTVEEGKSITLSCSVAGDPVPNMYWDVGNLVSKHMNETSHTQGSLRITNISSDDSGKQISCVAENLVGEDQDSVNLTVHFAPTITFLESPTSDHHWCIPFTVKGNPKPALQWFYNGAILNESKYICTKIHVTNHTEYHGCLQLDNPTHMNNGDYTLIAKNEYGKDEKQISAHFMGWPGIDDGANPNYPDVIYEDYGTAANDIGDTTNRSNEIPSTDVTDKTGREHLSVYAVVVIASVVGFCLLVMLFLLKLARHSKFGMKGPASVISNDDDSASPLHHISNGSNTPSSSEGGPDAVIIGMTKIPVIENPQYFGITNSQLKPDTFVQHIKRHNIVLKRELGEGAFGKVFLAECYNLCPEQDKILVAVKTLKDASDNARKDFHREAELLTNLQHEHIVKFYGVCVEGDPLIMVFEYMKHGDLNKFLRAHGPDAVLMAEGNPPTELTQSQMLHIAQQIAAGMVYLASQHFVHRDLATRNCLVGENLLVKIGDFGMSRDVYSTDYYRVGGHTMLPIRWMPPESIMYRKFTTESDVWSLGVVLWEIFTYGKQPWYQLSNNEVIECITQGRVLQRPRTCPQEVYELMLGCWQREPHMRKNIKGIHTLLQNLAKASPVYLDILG
Chain of KDR (VEGFR2) (P35968 20-1356): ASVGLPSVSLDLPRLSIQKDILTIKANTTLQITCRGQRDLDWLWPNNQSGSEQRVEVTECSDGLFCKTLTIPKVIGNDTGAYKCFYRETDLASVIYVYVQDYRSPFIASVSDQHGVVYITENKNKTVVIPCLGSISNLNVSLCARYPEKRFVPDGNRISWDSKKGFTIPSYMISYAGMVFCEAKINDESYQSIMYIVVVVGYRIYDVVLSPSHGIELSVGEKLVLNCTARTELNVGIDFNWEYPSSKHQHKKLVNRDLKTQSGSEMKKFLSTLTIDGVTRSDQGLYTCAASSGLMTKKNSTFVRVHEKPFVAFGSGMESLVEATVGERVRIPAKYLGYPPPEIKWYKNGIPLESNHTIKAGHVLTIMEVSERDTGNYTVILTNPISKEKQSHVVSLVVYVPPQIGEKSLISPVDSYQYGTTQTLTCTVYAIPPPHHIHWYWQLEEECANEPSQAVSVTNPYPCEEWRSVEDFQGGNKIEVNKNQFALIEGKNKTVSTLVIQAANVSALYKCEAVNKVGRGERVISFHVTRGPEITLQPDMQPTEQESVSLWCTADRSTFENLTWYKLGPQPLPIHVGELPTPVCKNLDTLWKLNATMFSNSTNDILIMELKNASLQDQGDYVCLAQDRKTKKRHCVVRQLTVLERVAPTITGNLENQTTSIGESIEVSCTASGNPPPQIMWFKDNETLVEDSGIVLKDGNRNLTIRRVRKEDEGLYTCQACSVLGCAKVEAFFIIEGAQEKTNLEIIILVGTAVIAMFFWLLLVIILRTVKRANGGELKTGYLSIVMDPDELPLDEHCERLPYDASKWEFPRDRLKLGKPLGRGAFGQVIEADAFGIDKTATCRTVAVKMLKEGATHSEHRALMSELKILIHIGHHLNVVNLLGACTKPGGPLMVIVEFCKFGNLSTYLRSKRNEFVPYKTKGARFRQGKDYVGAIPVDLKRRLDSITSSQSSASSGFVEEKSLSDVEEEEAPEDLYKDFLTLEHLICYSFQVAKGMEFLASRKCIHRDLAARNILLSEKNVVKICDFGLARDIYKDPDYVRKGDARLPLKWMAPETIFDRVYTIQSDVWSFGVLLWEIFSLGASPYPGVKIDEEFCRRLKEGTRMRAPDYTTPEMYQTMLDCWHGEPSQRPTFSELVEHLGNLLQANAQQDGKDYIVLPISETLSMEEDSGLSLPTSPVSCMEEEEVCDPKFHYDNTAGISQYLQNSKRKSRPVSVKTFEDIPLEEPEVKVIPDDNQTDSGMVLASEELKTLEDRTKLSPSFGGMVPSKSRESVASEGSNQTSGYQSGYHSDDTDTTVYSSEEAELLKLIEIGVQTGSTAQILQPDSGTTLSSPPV

COc1cc(O)c2c(c1)[C@H]1O[C@@H]1C[C@H](O)[C@H](O)C(=O)/C=C\C[C@H](C)OC2=O [Hypothemycin, hypothemycin]
phosphorylated forms of FLT3, MEK and ERK [1]: loss of phosphorylated forms
Ki ([2]; TRKB, reversible inhibition competitive with ATP): 370 nM
kinact/Ki ([2]; TrkB): None
time-dependent inactivation (covalent bond formation) ([2]; TrkB): did not show time-dependent inactivation
kinact ([2]; TrkB, 1 mM ATP): None
kinact/KI [3]: 1300 M⁻¹ s⁻¹
Ki ([3]; 1 mM ATP): 1500 nM
kinact ([3]; 1 mM ATP): 0.002 s⁻¹
kinact/KI [4]: 47000 M⁻¹ s⁻¹
Ki ([4]; 1 mM ATP): 150 nM
kinact ([4]; 1 mM ATP): 0.007 s⁻¹
Ki ([5]; TRKA, reversible inhibition competitive with ATP): 2200 nM
kinact/Ki ([5]; TrkA): None
time-dependent inactivation (covalent bond formation) ([5]; TrkA): did not show time-dependent inactivation
kinact ([5]; TrkA, 1 mM ATP): None
kinact/KI [6]: 160000 M⁻¹ s⁻¹
kinact ([6]; 1 mM ATP): 0.018 s⁻¹
Ki ([6]; 1 mM ATP, significant decrease of enzyme activity over time without inhibitor): 110 nM
Ki [7]: 370000 nM
kinact/KI ([7]; GSK3β): 5.4 M⁻¹ s⁻¹
kinact ([7]; GSK3β, 1 mM ATP): 0.002 s⁻¹
Ki [8]: > 630000 nM
kinact/KI [9]: 2500 M⁻¹ s⁻¹
Ki ([9]; 1 mM ATP): 1200 nM
kinact ([9]; 1 mM ATP): 0.003 s⁻¹
Ki ([10]; KDR): 10 nM
kinact/KI ([10]; KDR): 500000 M⁻¹ s⁻¹
kinact/Ki ([10]; KDR (VEGFR2)): 500000 M⁻¹ s⁻¹
Ki ([10]; KDR (VEGFR2), 5 mM ATP): 14 nM
kinact ([10]; KDR (VEGFR2), 5 mM ATP): 0.007 s⁻¹
KDR activity inhibited ([10]; calculated for 0.1 μM for ~10 minutes): > 98%

From patent publication US20100004234A1, “SPECIFIC KINASE INHIBITORS” (Kosan Biosciences Incorporated, priority 2004, published 2010)
